Consider four molecules from US4921528A, “Substituted azolylmethyl-cyclopropyl-carbinol derivatives” (Bayer Aktiengesellschaft, priority 1984, dated 1990).

Assay type in all cases: in vivo
The test system of one assay is Barley plants. Description: Inhibition of growth of barley. Conditions: sprayed until dripping wet; measured after 3 weeks; compared with prior-art compounds (A), (B), (C) and (D). The method, then:
Inhibition of growth of barley
(§1) Solvent: 30 parts by weight of dimethylformamide
(§2) Emulsifier: 1 part by weight of polyoxyethylene sorbitan monolaurate.
(§3) To produce a suitable preparation of active compound, 1 part by weight of active compound is mixed with the stated amounts of solvent and emulsifier and the mixture is made up to the desired concentration with water.
Barley plants are grown in a greenhouse to the 2-leaf stage. In this stage, the plants are sprayed with the preparations of active compound until dripping wet. After 3 weeks, the additional growth is measured on all plants and the inhibition of growth in per cent of the additional growth of the control plants is calculated. 100% inhibition of growth means that growth has stopped and 0% denotes a growth corresponding to that of the control plants.

The test system of a further assay is Rice. Description: Inhibition of growth of rice. As to conditions: pots placed in active compound solution; length determined after development of the third leaf. The method, then:
Inhibition of growth of rice
as §1, §2
To prepare a suitable preparation of active compound, 1 part by weight of active compound is mixed with the stated amounts of solvent and emulsifier, and the mixture is made up to the desired concentration with water.
Rice is grown in climatic chambers in small pots containing vermiculite, until the first leaf reaches a size of 1-2 cm. At this stage, the pots are placed in the prepared active compound solutions to a height corresponding to half the height of the pot.
After the development of the third leaf, the length of all plants is determined, and expressed as a percentage of the length of the control plants. 100% means growth corresponding to that of the control plants, values below 100% mean inhibition of growth, and values above 100% mean promotion of growth.

The test system of the next assay is Cotton plants. Nature of the assay: Inhibition of growth of cotton. As to conditions: sprayed until dripping wet; measured after 3 weeks; compared with prior-art compound (A). The procedure:
Inhibition of growth of cotton
as §1
Emulsifier: 1 part by weight of […] sorbitan monolaurate.
as §3
Cotton plants are grown in a greenhouse until the 5th secondary leaf has unfolded completely. In this stage, the plants are sprayed with the preparations of active compound until dripping wet. After 3 weeks, the additional growth of the plants is measured and the inhibition of growth in per cent of the additional growth of the control plants is calculated. 100% inhibition of growth means that growth has stopped and 0% denotes a growth corresponding to that of the control plants.

A further assay has as its system Soya bean plants. Nature of the assay: Inhibition of growth of soya beans. Conditions: sprayed until dripping wet; measured after 3 weeks; compared with prior-art compound (D). The procedure: Inhibition of growth of soya beans
as §1, §2, §3
Soya bean plants are grown in a greenhouse until the first secondary leaf has unfolded completely. In this stage, the plants are sprayed with the preparations of active compound until dripping wet. After 3 weeks, the additional growth is measured on all the plants and the inhibition of growth in per cent of the additional growth of the control plants is calculated. 100% inhibition of growth means that growth has stopped and 0% denotes a growth corresponding to that of the control plants.

In the next assay the test system is Venturia inaequalis. Nature of the assay: Venturia test (apple)/protective. As to conditions: young apple plants sprayed, then inoculated; evaluation 12 days after inoculation; compared with comparative substance (c). The method, then:
Venturia test (apple)/protective/ Solvent: 4.7 parts by weight of acetone Emulsifier: 0.3 parts by weight of alkylaryl polyglycol ether. To produce a suitable preparation of active compound, 1 part by weight of active compound is mixed with the stated amounts of solvent and emulsifier, and the concentrate is diluted with water to the desired concentration. To test for protective activity, young plants are sprayed with the preparation of active compound until dripping wet. After the spray coating has dried on, the plants are inoculated with an aqueous conidia suspension of the apple scab causative organism (Venturia inaequalis) and then remain in an incubation cabinet at 20° C. and 100% relative atmospheric humidity for 1 day. The plants are then placed in a greenhouse at 20° C. and a relative atmospheric humidity of about 70%. Evaluation is carried out 12 days after the inoculation.

On to `OC(Cn1cncn1)(c1ccc(Cl)cc1)C1(Oc2ccccc2)CC1` (stereo not shown) [Compound I-5], for which the “inhibition of growth of barley (per cent of additional growth of control plants)” value in the assay with Barley plants was “more pronounced inhibition of growth than the compounds (A), (B), (C) and (D)”. In addition, in the assay on Rice, the “inhibition of growth of rice (length of plants as percentage of control plants)” value was “pronounced inhibition of growth”. Moreover, the “inhibition of growth of cotton (per cent of additional growth of control plants)” value in the assay on Cotton plants is listed as “more pronounced inhibition of growth than the compound (A)”.
`CC[S+]([O-])C1(C(O)(Cn2cncn2)c2ccc(Cl)cc2)CC1` (stereo not shown) [Compound I-3, 1-(4-chlorophenyl)-1-[1-(ethylsulphinyl)-1-cyclopropyl]-2-(1,2,4-triazol-yl)1-ethanol]: in the assay with Barley plants, the “inhibition of growth of barley (per cent of additional growth of control plants)” value was “more pronounced inhibition of growth than the compounds (A), (B), (C) and (D)”. In addition, the “inhibition of growth of rice (length of plants as percentage of control plants)” value in the assay with Rice is on record as “pronounced inhibition of growth”. Also, the “inhibition of growth of soya beans (per cent of additional growth of control plants)” value with Soya bean plants was “more pronounced inhibition of growth than the compound (D)”. In the assay with Cotton plants, the “inhibition of growth of cotton (per cent of additional growth of control plants)” value is on record as “more pronounced inhibition of growth than the compound (A)”.
Regarding `CCSC1(C(O)(Cn2cncn2)c2ccc(Cl)cc2)CC1` (stereo not shown) [Compound I-1, 1-(4-chlorophenyl)-1-[1-(ethylthio)-1-cyclopropyl]-2-(1,2,4-triazol-1-yl)1-ethanol], in the assay on Rice, the “inhibition of growth of rice (length of plants as percentage of control plants)” value is on record as “pronounced inhibition of growth”. Further, the “protective activity against apple scab (Venturia inaequalis)” value in the assay on Venturia inaequalis is on record as “better activity than the known comparative substance (c)”.
As for `CCCCSC1(C(O)(Cn2cncn2)c2ccc(Cl)cc2)CC1` (stereo not shown) [Compound I-6], in the assay on Rice, the “inhibition of growth of rice (length of plants as percentage of control plants)” value is reported as “pronounced inhibition of growth”.
